Among the data in patent US20090124624A1, “SUBSTITUTED 1-AMINOPHTHALAZINE DERIVATIVES, PREPARATION THEREOF AND THERAPEUTIC APPLICATION THEREOF” (SANOFI-AVENTIS, priority 2005, published 2009) are IC50 values, retold here.

Assay [1] addresses T1, MCH1 receptor (Mus musculus, UniProt Q8JZL2).
T1 construct: from tissue; host or cells: mouse brain membranes
The assay can be described thus: Displacement of [125I]-Tyr-S36057 binding to MCH1 receptors, mouse brain membrane preparations. To be noted: in mice, brain membranes, read-out: IC50 (concentration that inhibits 50% of the specific binding). The protocol:
(§1) The measurement of the affinity of the compounds of the invention for the MCH receptors was performed by studying the displacement of the binding of a radiolabelled derivative of MCH to the MCH1 receptors. This study was performed on rat and/or mouse brain membrane preparations according to the protocol described below.
(§2) In anticipation of the binding studies, the brains are diluted in HEPES buffer 25 mM (pH: 7.4) containing MgCl2 5 mM, CaCl2 1 mM, homogenized using a Polytron blender for 3 times 20 seconds (speed 25), and are then ultracentrifuged at 22000 rpm and at +4° C. for 30 minutes. The centrifugation pellet is taken up in the same buffer and the membranes are divided into aliquots and stored frozen at −80° C. until the time of use. The membranes are warmed to room temperature and then incubated in the presence of the test compounds, and of […] of an MCH-based radiolabelled molecule, [^125I]-Tyr-S36057 (8-amino-3,6-dioxyoctanoyl MCH 6-17 sold by Perkin-Elmer), in HEPES buffer 25 mM (pH: 7.4) containing MgCl2 5 mM, CaCl2 1 mM, bacitracin 140 mg/L, phenanthroline 1 mM and 0.2% bovine serum albumin. […] The radioactivity retained on the filters is measured using a Gamma scintillation counter. The non-specific binding is determined in the presence of 1 μM of non-radiolabelled S36057. […]
A general note: Loss of bound radioactivity is the signal in a displacement assay; it reports binding, not function.

Assay [2] deals with T2, MCH1 receptor (Rattus norvegicus, UniProt P97639).
T2 construct: from tissue; host or cells: rat brain membranes
The assay can be described thus: Displacement of [125I]-Tyr-S36057 binding to MCH1 receptors, rat brain membrane preparations. As to conditions: in rats, brain membranes, read-out: IC50 (concentration that inhibits 50% of the specific binding). The protocol: as §1, §2

Structures can show the parent of a compound that is named as a salt.

T1 sequence (Q8JZL2 whole entry): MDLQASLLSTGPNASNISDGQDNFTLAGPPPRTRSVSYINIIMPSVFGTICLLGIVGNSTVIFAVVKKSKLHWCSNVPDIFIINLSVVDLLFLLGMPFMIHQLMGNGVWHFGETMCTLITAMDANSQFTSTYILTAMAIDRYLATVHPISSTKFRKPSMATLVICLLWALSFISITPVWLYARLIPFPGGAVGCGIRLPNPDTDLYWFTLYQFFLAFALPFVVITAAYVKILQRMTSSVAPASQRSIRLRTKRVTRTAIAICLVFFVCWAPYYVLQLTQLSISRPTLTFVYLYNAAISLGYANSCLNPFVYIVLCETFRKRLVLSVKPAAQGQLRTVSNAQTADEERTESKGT
T2 sequence (P97639 whole entry): as the sequence (Q8JZL2 whole entry) above, with A5T, F24L, A27P, P29S, R34G, A138T counted along it

For `COc1ccc(-c2nnc(NC3CCN(Cc4ccc(OCCCN(C)C)cc4)CC3)c3cc(OC)ccc23)cc1` [Example 3, N-(1-[{4-[3-(Dimethylamino)propoxy]benzyl}piperidin-4-yl)-7-methoxy-4-(4-methoxy-phenyl)phthalazin-1-aminetrihydrochloride], the IC50 in assay [1] was found to be 0.038 µM; in assay [2] it was 0.052 µM.
For `COc1ccc2c(C3CCN(Cc4ccccc4)CC3)nnc(NC3CCN(Cc4ccc5c(c4)OCO5)CC3)c2c1` [Example 1, N-[1-(1,3-Benzodioxol-5-ylmethyl)piperidin-4-yl]-4-(1-benzylpiperidin-4-yl)-7-methoxyphthalazin-1-amine Trihydrochloride], the IC50 in assay [1] amounted to 0.0002 µM; in assay [2], 0.0005 µM.
